Laboratory results from the supplement of paper PMC8967900.

Assays:
Assay in all cases: selective drug sensitivity score (sDSS, relative to normal bone marrow) (sDSS (score)); higher = more potent and effective on the cell line relative to normal bone marrow cells
Conditions in all cases: 72 h
KASUMI-10 = system: KASUMI-10
697 = system: 697
P30-OHKUBO = system: P30-OHKUBO
MOLT-16 = system: MOLT-16
DND-41 = system: DND-41
MHH-CALL-4 = system: MHH-CALL-4
MN-60 = system: MN-60
NALL-1 = system: NALL-1
CCRF-HSB2 = system: CCRF-HSB2
HAL-01 = system: HAL-01
RCH-ACV = system: RCH-ACV
MHH-CALL-2 = system: MHH-CALL-2
ALL-SIL = system: ALL-SIL
MOLT-14 = system: MOLT-14
COG-LL-394h = system: COG-LL-394h
PF-382 = system: PF-382
KASUMI-2 = system: KASUMI-2
380 = system: 380
KASUMI-9 = system: KASUMI-9
TMD5 = system: TMD5
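Note: ALL cell lines in 384-well plates, five doses spanning 10,000-fold, each plate scaled between vehicle and 100 µmol/L benzalkonium chloride controls, sDSS an adapted area-under-curve metric.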

| SMILES | selective drug sensitivity score (KASUMI-10) | selective drug sensitivity score 697 | selective drug sensitivity score (P30-OHKUBO) | selective drug sensitivity score (MOLT-16) | selective drug sensitivity score (DND-41) | selective drug sensitivity score (MHH-CALL-4) | selective drug sensitivity score (MN-60) | selective drug sensitivity score (NALL-1) | selective drug sensitivity score (CCRF-HSB2) | selective drug sensitivity score (HAL-01) | selective drug sensitivity score (RCH-ACV) | selective drug sensitivity score (MHH-CALL-2) | selective drug sensitivity score (ALL-SIL) | selective drug sensitivity score (MOLT-14) | selective drug sensitivity score (COG-LL-394h) | selective drug sensitivity score (PF-382) | selective drug sensitivity score (KASUMI-2) | selective drug sensitivity score 380 | selective drug sensitivity score (KASUMI-9) | selective drug sensitivity score (TMD5) |
| --- | --- | --- | --- | --- | --- | --- | --- | --- | --- | --- | --- | --- | --- | --- | --- | --- | --- | --- | --- | --- |
| CNC(=O)c1ccccc1Sc1ccc2c(/C=C/c3ccccn3)n[nH]c2c1 [Axitinib] (top concentration 10000 nM) | 1.86 | 14.7 | 12.2 | 13.1 | 0.16 | -2.44 | -2.94 | 5.56 | 11 | -0.94 | 11.1 | -0.34 | 20.1 | 8.56 | 2.96 | 6.96 | 6.56 | 1.56 | 8.36 | 6.76 |
| Cc1c(N)nc([C@H](CC(N)=O)NC[C@H](N)C(N)=O)nc1C(=O)N[C@H](C(=O)N[C@H](C)[C@@H](O)[C@H](C)C(=O)N[C@H](C(=O)NCCc1nc(-c2nc(C(=O)NCCC[S+](C)C)cs2)cs1)[C@@H](C)O)[C@@H](O[C@@H]1O[C@@H](CO)[C@@H](O)[C@H](O)[C@@H]1O[C@H]1O[C@H](CO)[C@@H](O)[C@H](OC(N)=O)[C@@H]1O)c1c[nH]cn1 [Bleomycin] (top concentration 10000 nM) | 1.14 | 4.74 | 4.44 | 4.54 | 1.14 | 4.54 | -1.86 | -1.56 | -0.06 | 8.44 | 7.54 | 3.14 | -1.36 | 0.94 | 2.24 | 1.94 | 6.44 | 4.34 | 6.24 | 7.34 |
| CC(C)C[C@H](NC(=O)[C@H](Cc1ccccc1)NC(=O)c1cnccn1)B(O)O [Bortezomib] (top concentration 1000 nM) | 2.92 | 2.62 | 4.72 | 2.02 | 6.02 | 3.92 | -3.38 | 2.52 | 5.82 | 4.12 | 3.42 | 3.82 | 4.72 | 1.52 | 2.42 | 1.82 | 1.42 | 1.42 | 3.22 | 2.32 |
| CCC/C=C/C=C/C(=O)O[C@H]1/C(=C/C(=O)OC)C[C@H]2C[C@H]([C@@H](C)O)OC(=O)C[C@H](O)C[C@@H]3C[C@H](OC(C)=O)C(C)(C)[C@](O)(C[C@@H]4C/C(=C/C(=O)OC)C[C@H](/C=C/C(C)(C)[C@]1(O)O2)O4)O3 [Bryostatin_1] (top concentration 100 nM) | 6.78 | 12 | 20.2 | -7.12 | 0.88 | -7.12 | -7.12 | -7.12 | 20.4 | 0.08 | -7.12 | 8.68 | -7.12 | -7.12 | -5.92 | 4.18 | -7.12 | -7.12 | 25.1 | -7.12 |
| CO[C@H]1CC[C@H](N2C(=O)CNc3ncc(-c4ccc(C(C)(C)O)nc4)nc32)CC1 [CC-223] (top concentration 10000 nM) | -1.38 | 5.02 | 3.12 | 4.12 | 1.32 | 1.52 | 1.32 | 5.52 | 2.62 | 6.32 | 9.62 | 6.42 | 1.32 | 0.62 | -2.28 | 1.42 | 7.92 | 13 | 5.12 | 6.12 |
| CN(C)c1cc2c(cc1Sc1nc3c(N)nccc3n1CCNCC(C)(C)C)OCO2 [CUDC-305] (top concentration 10000 nM) | 3.52 | 2.92 | 1.72 | 4.42 | 5.92 | 0.92 | 1.42 | 0.42 | 8.12 | 3.32 | 4.02 | 1.02 | 3.02 | 5.12 | -1.28 | 3.82 | -0.28 | 3.22 | 0.22 | 1.82 |
| CO[C@H]1C(=O)[C@]2(C)[C@@H](OC)C[C@H]3OC[C@@]3(OC(C)=O)[C@H]2[C@H](OC(=O)c2ccccc2)[C@]2(O)C[C@H](OC(=O)[C@H](O)[C@@H](NC(=O)OC(C)(C)C)c3ccccc3)C(C)=C1C2(C)C [Cabazitaxel] (top concentration 1000 nM) | 12.4 | 23.7 | 20.3 | 26.7 | -4.32 | 3.58 | -5.32 | 11.4 | 21.1 | 11.7 | 22.9 | 15.9 | 19.3 | 22.7 | 6.08 | 10.9 | 17.5 | 25.7 | 18.7 | 2.88 |
| C=CC(=O)Nc1cc2c(Nc3ccc(F)c(Cl)c3)ncnc2cc1OCCCN1CCOCC1 [Canertinib] (top concentration 10000 nM) | 4.66 | 1.66 | 2.26 | 1.86 | 1.36 | 1.66 | -4.14 | -0.94 | 6.36 | 2.76 | 1.26 | 3.16 | 5.16 | -0.04 | 1.56 | -0.54 | 1.86 | 3.16 | 3.76 | 4.96 |
| CC(C)C[C@H](NC(=O)[C@H](CCc1ccccc1)NC(=O)CN1CCOCC1)C(=O)N[C@@H](Cc1ccccc1)C(=O)N[C@@H](CC(C)C)C(=O)[C@@]1(C)CO1 [Carfilzomib] (top concentration 1000 nM) | 0.36 | 0.66 | 3.46 | 1.36 | 5.36 | 1.56 | -7.34 | 0.56 | 3.86 | -8.84 | 0.86 | 1.56 | 1.66 | 1.16 | 0.26 | 1.86 | -0.04 | 0.06 | 1.76 | 0.16 |
| O=C(c1ccc(F)c(F)c1Nc1ccc(I)cc1F)N1CC(O)([C@@H]2CCCCN2)C1 [Cobimetinib] (top concentration 1000 nM) | -3.68 | -2.58 | -3.68 | -3.68 | 2.62 | 2.62 | -3.68 | -1.88 | -0.28 | 0.32 | -3.68 | 0.42 | -2.98 | 5.22 | -2.48 | -3.28 | 4.22 | 0.82 | -2.38 | 1.32 |
| COc1c(OCCCN2CCOCC2)ccc2c1N=C(NC(=O)c1cnc(N)nc1)N1CCN=C21 [Copanlisib] (top concentration 1000 nM) | -1.32 | 3.48 | 10.1 | 7.68 | -2.72 | 9.28 | 0.48 | -0.62 | 1.98 | 12.1 | 22.2 | 6.18 | 0.38 | -3.92 | -0.82 | 2.58 | 4.18 | 14.4 | 5.98 | -5.32 |
| Cn1c(=O)n(-c2ccc(C(C)(C)C#N)cc2)c2c3cc(-c4cnc5ccccc5c4)ccc3ncc21 [Dactolisib] (top concentration 1000 nM) | -1.04 | 15.8 | 14.8 | 16.1 | 5.66 | 4.06 | 8.66 | 3.46 | 11.1 | 9.66 | 21.3 | 9.36 | 4.96 | 0.36 | -3.94 | 9.36 | 9.06 | 17.5 | 10.3 | 4.46 |
| O=C(/C=C/c1cccnc1)NCCCCC1CCN(C(=O)c2ccccc2)CC1 [Daporinad] (top concentration 1000 nM) | 12.1 | 16.3 | 16 | 11.2 | 19.9 | 7.66 | 6.66 | 15.9 | 6.76 | 7.26 | 19.5 | 11.4 | 9.46 | 4.66 | -4.44 | 18.4 | 8.66 | 14.7 | 16.2 | 4.46 |
| CC(=O)N(O)CCCCCNC(=O)CCC(=O)N(O)CCCCCNC(=O)CCC(=O)N(O)CCCCCN [Deferoxamine] (top concentration 10000 nM) | 3.06 | 6.26 | 0.76 | 6.26 | 5.16 | -0.84 | 5.16 | -0.74 | 4.86 | 8.46 | 3.86 | 7.66 | 3.56 | 8.76 | 0.76 | 4.66 | -0.74 | 1.96 | 1.16 | -0.24 |
| Cc1cc(Nc2cc(N3CCN(C)CC3)nc(/C=C/c3ccccc3)n2)n[nH]1 [ENMD-2076] (top concentration 10000 nM) | 9.14 | 9.54 | 8.94 | 7.04 | -0.46 | 0.34 | -1.46 | 5.84 | 9.74 | 5.54 | 8.84 | 5.44 | 8.94 | 6.64 | 1.44 | 1.34 | -4.76 | 2.54 | 9.24 | -0.26 |
| Cc1cnc(Nc2ccc(OCCN3CCCC3)cc2)nc1Nc1cccc(S(=O)(=O)NC(C)(C)C)c1 [Fedratinib] (top concentration 10000 nM) | 4.94 | -0.76 | -2.16 | -1.06 | 3.94 | -1.36 | -4.06 | -1.56 | 0.54 | -1.96 | -1.06 | -0.26 | 0.84 | -0.06 | 0.14 | -3.06 | -6.16 | -6.96 | -0.86 | -2.26 |
| COc1ccc(-c2nc(N3CCOCC3)c3sc(CN(C)c4ncc(C(=O)NO)cn4)cc3n2)cn1 [Fimepinostat (CUDC-907)] (top concentration 10000 nM) | 9.18 | 9.88 | 8.68 | 8.68 | 4.68 | 9.68 | -1.22 | -3.42 | 1.68 | 0.98 | 10.9 | 10.3 | 8.98 | 9.18 | 3.28 | 2.58 | 8.88 | 10.3 | 10.7 | 5.18 |
